The subject of one experiment is BaF3. The experiment can be described thus: Cell growth (Cell Titer-Glo viability), BaF3. In kind it is cell-based. The conditions noted are these: BaF3 mouse primary B cell, 72 hrs.
The subject of the next experiment is HCC827. The experiment can be described thus: Growth of cancer cells (Cell Titer-Glo viability), HCC827. Format: cell-based. The conditions noted are these: Homo sapiens; HCC827 (mutant EGFR del19), 72 hrs. Put shortly: (§1)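 Cells are counted as viable by CellTiter-Glo chemiluminescence. Murine BaF3 lines depend on a stably transfected TEL-fused kinase after IL-3 withdrawal, and the NSCLC lines express mutant EGFR.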

A further experiment concerns BaF3-FL-EGFR-Del19. As to the kind of experiment: Cell growth (Cell Titer-Glo viability), BaF3-FL-EGFR-Del19. Format: cell-based. To be noted: Mus musculus; BaF3-FL-EGFR-Del19 (EGFR delE746_A750 mutant kinase), 72 hrs. From the text: (§2) By testing the effect of the novel kinase inhibitors on the proliferation of cancer cells, the selectivity of the compounds of the present disclosure in inhibiting the proliferation of cancer cells was further assessed. In this example, human non-small cell lung cancer cell NCI-H1975 (expressing EGFR L858R/T790M double mutant gene), human skin squamous carcinoma cell A431 (expressing wild-type EGFR gene), non-small cell lung cancer NCI-H3255 (expressing EGFR L858R mutant gene), non-small cell lung cancer cell NCI-H3122 (expressing ALK gene), human non-small cell lung cancer cell A549 (expressing wild-type EGFR gene), human non-small cell lung cancer cell NCI-H2122 (expressing wild-type EGFR gene), human non-small cell lung cancer cell NCI-H460 (expressing wild-type EGFR gene), human non-small cell lung cancer cell PC-9 (expressing EGFR delE746_A750 mutant gene), Chinese hamster ovary cell CHO (Cricetulus griseus, hamster, Chinese, ovary), Chinese hamster lung cell CHL, human non-small cell lung cancer cell HCC827 (expressing mutant EGFR del19 gene), human lung adenocarcinoma cell HCC4006 (expressing mutant EGFR del19 gene), human non-small cell lung cancer cell NCI-H2228 (expressing wild-type ALK gene), and mouse primary B cell BaF3 were used, and the above cells were all purchased from ATCC (US). In addition, mouse BaF3-TEL-ALK (stably expressing ALK kinase), mouse BaF3-ALK-F1174L (stably expressing mutant ALK F1174L kinase), mouse BaF3-NPM-ALK (stably expressing ALK kinase), mouse BaF3-TEL-EGFR (stably expressing EGFR kinase), mouse BaF3-TEL-EGFR-T790M (stably expressing EGFR T790M mutant kinase), mouse BaF3-FL-EGFR-Del19 (stably expressing EGFR delE746_A750 mutant kinase), mouse BaF3-TEL-EGFR-L858R (stably expressing EGFR L858R mutant kinase), mouse BaF3-FL-EGFR-T790M-L858R (stably expressing EGFR T790M/L858R mutant kinase), mouse BaF3-TEL-INSR (stably expressing INSR protein), mouse BaF3-TEL-IGF1R (stably expressing IGF1R Protein), mouse BaF3-EML4-ALK (stably expressing EML4-ALK Protein), mouse BaF3-TEL-JAK3 (stably expressing JAK3 kinase protein), mouse BaF3-TEL-CSF1R (stably expressing CSF1R protein), and mouse BaF3-TEL-ALK-F1196M (stably expressing ALK F1196M mutant kinase) were also used in this example. The above cell lines were all established by our laboratory via the following process: kinase proteins or protein domain sequences of human ALK, ALK F1174L, EGFR, EGFR T790M, EGFR delE746_A750, EGFR L858, EGFR T790M/L858R, INSR, IGF1R, EML4-ALK, JAK3, CSF1R, ALK F1196M were amplified respectively by PCR, and were respectively inserted into MSCV-Puro vector (Clontech) with N-terminal TEL fragments and/or NPM fragments and/or TPR fragments; the resultants were stably transfected into mouse BaF3 cells by the means of retrovirus, and the IL-3 growth factors were removed, and eventually the ALK, ALK F1174L, EGFR, EGFR T790M, EGFR delE746_A750, EGFR L858, EGFR T790M/L858R, INSR, IGF1R, EML4-ALK, JAK3, CSF1R, ALK F1196M-transferred protein dependent cell lines were obtained.
(§3) The number of viable cells was determined quantitatively by a microplate reader using Cell Titer-Glo® (Promega, US) chemiluminescence cell viability assay kit.

Another experiment deals with NCI-H460. The experiment can be described thus: Growth of cancer cells (Cell Titer-Glo viability), NCI-H460. Format: cell-based. To be noted: Homo sapiens; NCI-H460 (wild-type EGFR), 72 hrs.
Text: as §2, §3
(ATP-based viability assays read luminescence as a measure of living cells.)

The test system of the next experiment is A431. The experiment can be described thus: Growth of cancer cells (Cell Titer-Glo viability), A431. To be noted: Homo sapiens, A-431; A431 (wild-type EGFR), 72 hrs; read-out: GI50. In kind it is cell-based.
In the next experiment the test system is BaF3-ALK-F1174L. The experiment can be described thus: Cell growth (Cell Titer-Glo viability), BaF3-ALK-F1174L. In kind it is cell-based. To be noted: Mus musculus; BaF3-ALK-F1174L (mutant ALK F1174L kinase), 72 hrs. The method, boiled down: as §1
A further experiment deals with CHL. As to the kind of experiment: Cell growth (Cell Titer-Glo viability), CHL. In kind it is cell-based, Chinese hamster. The conditions noted are these: Cricetulus griseus; CHL Chinese hamster lung cell, 72 hrs; read-out: GI50.
The next experiment has as its system NCI-H1975. As to the kind of experiment: Growth of cancer cells (Cell Titer-Glo viability), NCI-H1975. Format: cell-based. To be noted: Homo sapiens; NCI-H1975 (EGFR L858R/T790M double mutant), 72 hrs. Put shortly: as §1
Another experiment has as its system HCC4006. The experiment can be described thus: Growth of cancer cells (Cell Titer-Glo viability), HCC4006. To be noted: Homo sapiens; HCC4006 (mutant EGFR del19), 72 hrs. Format: cell-based.
Text: as §2, §3

The subject of the next experiment is CHO. As to the kind of experiment: Cell growth (Cell Titer-Glo viability), CHO. In kind it is cell-based, Chinese hamster. To be noted: Cricetulus griseus; CHO Chinese hamster ovary cell, 72 hrs; read-out: GI50.
A further experiment has as its system BaF3-TEL-EGFR-T790M. The experiment can be described thus: Cell growth (Cell Titer-Glo viability), BaF3-TEL-EGFR-T790M. Format: cell-based. The conditions noted are these: Mus musculus; BaF3-TEL-EGFR-T790M (EGFR T790M mutant kinase), 72 hrs.
Text: as §2, §3

A further experiment has as its system NCI-H3122. The experiment can be described thus: Growth of cancer cells (Cell Titer-Glo viability), NCI-H3122. In kind it is cell-based. To be noted: Homo sapiens; NCI-H3122 (expressing ALK gene), 72 hrs; read-out: GI50.
The subject of the next experiment is BaF3-TEL-ALK. As to the kind of experiment: Cell growth (Cell Titer-Glo viability), BaF3-TEL-ALK. In kind it is cell-based. To be noted: Mus musculus; BaF3-TEL-ALK (stably expressing ALK kinase), 72 hrs. The method, boiled down: as §1
In a further experiment the test system is NCI-H2122. As to the kind of experiment: Growth of cancer cells (Cell Titer-Glo viability), NCI-H2122. The conditions noted are these: Homo sapiens; NCI-H2122 (wild-type EGFR), 72 hrs. In kind it is cell-based.
The next experiment has as its system NCI-H2228. The experiment can be described thus: Growth of cancer cells (Cell Titer-Glo viability), NCI-H2228. In kind it is cell-based. To be noted: Homo sapiens; NCI-H2228 (wild-type ALK), 72 hrs.
The subject of a further experiment is NCI-H3255. The experiment can be described thus: Growth of cancer cells (Cell Titer-Glo viability), NCI-H3255. To be noted: Homo sapiens; NCI-H3255 (EGFR L858R mutant), 72 hrs. In kind it is cell-based.
Text: as §2, §3

Another experiment deals with PC-9. The experiment can be described thus: Growth of cancer cells (Cell Titer-Glo viability), PC-9. Format: cell-based. To be noted: Homo sapiens; PC-9 (EGFR delE746_A750 mutant), 72 hrs. The method, boiled down:
as §1

The subject of a further experiment is BaF3-TEL-EGFR. The experiment can be described thus: Cell growth (Cell Titer-Glo viability), BaF3-TEL-EGFR. In kind it is cell-based. To be noted: Mus musculus; BaF3-TEL-EGFR (stably expressing EGFR kinase), 72 hrs.
Text: as §2, §3

A further experiment concerns BaF3-NPM-ALK. The experiment can be described thus: Cell growth (Cell Titer-Glo viability), BaF3-NPM-ALK. In kind it is cell-based. To be noted: Mus musculus; BaF3-NPM-ALK (stably expressing ALK kinase), 72 hrs.
Text: as §2, §3

The next experiment deals with A549. As to the kind of experiment: Growth of cancer cells (Cell Titer-Glo viability), A549. In kind it is cell-based. The conditions noted are these: Homo sapiens; A549 (wild-type EGFR), 72 hrs.

For four compounds, GI50 results are on record in patent US10350210B2, “EGFR and ALK dual inhibitor” (PRECEDO PHARMACEUTICALS CO., LTD, priority 2015, dated 2019).

For orientation: GI50 means the concentration giving 50% growth inhibition.

Take `C=CC(=O)Nc1cc(Nc2ncc(Cl)c(Nc3ccccc3S(=O)(=O)C(C)C)n2)c(OC)cc1N1CCC(N2CCN(C)CC2)CC1` [Compound 8, N-(5-(5-chloro-4-(2-(isopropylsulfonyl)phenylamino)pyrimidin-2-ylamino)-4-methoxy-2-(4-(4-methylpiperazin-1-yl)piperidin-1-yl)phenyl)acrylamide]: the GI50 is 460 nM in the experiment on BaF3; 2.7 nM in the experiment on HCC827; 2 nM in the experiment with BaF3-FL-EGFR-Del19; 660 nM in the experiment with NCI-H460; 370 nM in the experiment on A431; 29 nM in the experiment on BaF3-ALK-F1174L. In addition, the GI50 is 800 nM with CHL; 45 nM in the experiment with NCI-H1975; 14 nM with HCC4006; 460 nM with CHO; 46 nM with BaF3-TEL-EGFR-T790M; less than 0.3 nM in the experiment on NCI-H3122. For the same compound, the GI50 is less than 0.3 nM with BaF3-TEL-ALK; 200 nM with NCI-H2122; 350 nM in the experiment with NCI-H2228; 110 nM in the experiment on NCI-H3255; 53 nM with PC-9; 430 nM with BaF3-TEL-EGFR. The compound also gave a GI50 with BaF3-NPM-ALK of less than 3 nM.

With `C=CC(=O)Nc1cc(Nc2ncc(C)c(Nc3ccccc3S(=O)(=O)C(C)C)n2)c(OC)cc1N1CCC(N2CCN(C)CC2)CC1` [Compound 24, N-(5-(4-(2-(isopropylsulfonyl)phenylamino)-5-methylpyrimidin-2-ylamino)-4-methoxy-2-(4-(4-methylpiperazin-1-yl)piperidin-1-yl)phenyl)acrylamide], the GI50 in the experiment with BaF3 stood at 1600 nM; in the experiment on HCC827, 6.2 nM; in the experiment with BaF3-FL-EGFR-Del19, 2 nM; with NCI-H460, 680 nM; in the experiment on A431 it was 440 nM; in the experiment on BaF3-ALK-F1174L it was 16 nM. For the same compound, the GI50 with CHL is 660 nM; in the experiment on NCI-H1975 it was 59 nM; with HCC4006 it was 14 nM; in the experiment with CHO it was 1700 nM; in the experiment on BaF3-TEL-EGFR-T790M it was 100 nM; in the experiment on NCI-H3122, less than 0.3 nM. For the same compound, the GI50 in the experiment with BaF3-TEL-ALK is less than 0.3 nM; with NCI-H2122, 230 nM; with NCI-H2228 it was 330 nM; with NCI-H3255, 130 nM; with PC-9, 50 nM; with BaF3-TEL-EGFR it was 810 nM. In the experiment on BaF3-NPM-ALK, this compound gave a GI50 of 2 nM.

Regarding `CCC(=O)Nc1cc(Nc2ncc(Cl)c(Nc3ccccc3S(=O)(=O)C(C)C)n2)c(OC)cc1N1CCC(N2CCN(C)CC2)CC1` [Compound 30, N-(5-(5-chloro-4-(2-(isopropylsulfonyl)phenylamino)pyrimidin-2-ylamino)-4-methoxy-2-(4-(4-methylpiperazin-1-yl)piperidin-1-yl)phenyl)propionamide], the 50% growth inhibitory concentration (GI50) was determined as 470 nM in the experiment on BaF3; 150 nM in the experiment on HCC827; 120 nM with BaF3-FL-EGFR-Del19; 440 nM in the experiment with NCI-H460; 840 nM in the experiment with A431; 73 nM with BaF3-ALK-F1174L. For the same compound, the GI50 with CHL is 730 nM; in the experiment on NCI-H1975, 880 nM; in the experiment on HCC4006, 260 nM; in the experiment on CHO, 1900 nM; in the experiment with BaF3-TEL-EGFR-T790M, 230 nM; in the experiment with NCI-H3122 it was less than 0.3 nM. Moreover, the concentration for 50% growth inhibition (GI50) in the experiment with BaF3-TEL-ALK was less than 0.3 nM; in the experiment with NCI-H2122, 150 nM; with NCI-H2228, 280 nM; with NCI-H3255, 640 nM; in the experiment on PC-9, 53 nM; in the experiment with BaF3-TEL-EGFR, 410 nM. This compound had a GI50 in the experiment with BaF3-NPM-ALK of less than 3 nM.

`COc1cc(N2CCC(N3CCN(C)CC3)CC2)ccc1Nc1ncc(Cl)c(Nc2ccccc2S(=O)(=O)C(C)C)n1` [TAE-684, reference compound]: the GI50 was determined as 370 nM in the experiment on HCC827; 470 nM with NCI-H460; 1300 nM in the experiment on A431; 140 nM in the experiment on BaF3-ALK-F1174L; 1500 nM with A549; 440 nM in the experiment with HCC4006. For the same compound, the GI50 was 420 nM in the experiment on BaF3-TEL-EGFR-T790M; less than 0.3 nM in the experiment with NCI-H3122; less than 0.3 nM with BaF3-TEL-ALK; 310 nM in the experiment with NCI-H2122; 580 nM in the experiment on NCI-H2228; 1000 nM in the experiment on NCI-H3255. Moreover, the results for the GI50 in the experiment on PC-9, with BaF3-TEL-EGFR and with BaF3-NPM-ALK were 540 nM, 560 nM and less than 3 nM, respectively.
